Results reported in patent US5686486A, “4-hydroxy-benzopyran-2-ones and 4-hydroxy-cycloalkyl[b]pyran-2-ones useful to treat retroviral infections” (priority 1995, dated 1997).
Values joined by “and” are separate entries in the source; they are usually repeats but may differ in a detail not shown here. Equal values may be shown once. Read-outs that look alike come from different tables or passages of the source.

Experiments:
HIV-1 protease [1] = biological target: T1, HIV-1 protease (Human immunodeficiency virus type 1 group M subtype B, UniProt P04585); assay: biochemical; settings: read-out: HIV-1 FITC KI
Experimental: Determination of Ki values utilizes the same materials and equipment employed for percent inhibition studies. Two-fold serial dilutions are made for a given inhibitor from 2, 3 or 4 starting concentrations with a total of 24, 36 or 48 individual inhibitor concentrations. These dilutions are performed utilizing the BioMek robotics system. The assay consists of 10 μL of 40 nM HIV-1 protease, 10 μL of the various inhibitor concentrations, and 20 μL of 200 μM substrate (40 μL total). The reaction is allowed to proceed for 90 min at room temperature, terminated with 40 μL of avidin beads and processed (supra vide). An inhibitor with a known Ki is run in parallel to verify the validity of the assay. The data is processed utilizing a computer program employing a nonlinear least square analysis of the data to generate the Ki values.

HIV-1 protease [2] = biological target: T1, HIV-1 protease; assay: biochemical; settings: for inhibition at 1 µM: read-out: HIV-1 Protease % Inhib, dose 1.000 uM; for inhibition at 100 µM: read-out: HIV-1 Protease % Inhib, dose 100.000 uM; for inhibition at 0.123 µM: read-out: HIV-1 Protease % Inhib, dose 0.123 uM; for inhibition at 0.37 µM: read-out: HIV-1 Protease % Inhib, dose 0.370 uM
Procedure, shortened: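 Percent inhibition derived from fluorescent cleavage product separated by filtration after streptavidin-bead capture of intact biotin/FITC substrate. Reaction: enzyme (10 μl, 0.1 μM stock) with substrate (20 μl, 0.2 μM stock) and compound, 1 h at room temperature in dark, pH 5.5 acetate buffer with 1.0 M NaCl and 0.05% NP-40.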

[3] = read-out: HIV-1 Protease % Inhib, dose 10.000 uM
[4] = read-out: HIV-1 Protease % Inhib, dose 1.100 uM
[5] = read-out: HIV-1 Protease % Inhib, dose 3.300 uM
[6] = read-out: HIV-1 Protease % Inhib, dose 30.000 uM
[7] = dose 1.100 uM, read-out: HIV-1 Protease % Inhib
[8] = dose 3.300 uM, read-out: HIV-1 Protease % Inhib
[9] = dose 10.000 uM, read-out: HIV-1 Protease % Inhib
[10] = dose 30.000 uM, read-out: HIV-1 Protease % Inhib

I.O=c1oc2c(c(O)c1C(c1cccc(NS(=O)(=O)CCCN3CCOCC3)c1)C1CC1)CCCCCC2 (stereo not shown) [Example 365B (Third Title Compound), N-[3-[Cyclopropyl(5,6,7,8,9,10-hexahydro-4-hydroxy-2-oxo-2H-cycloocta[b]pyran-3-yl)methyl]phenyl]-4-morpholinepropanesulfonamide hydrogen iodide salt]
Ki (HIV-1 protease [1]): 0.0143 µM | HIV-1 Protease % Inhib (HIV-1 protease [2]; dose 0.123 uM): 29.06% | HIV-1 Protease % Inhib (HIV-1 protease [2]; dose 0.370 uM): 56.47% | HIV-1 Protease % Inhib (HIV-1 protease [2]; dose 1.100 uM): 93.46% | HIV-1 Protease % Inhib (HIV-1 protease [2]; dose 3.300 uM): 90.63% | HIV-1 Protease % Inhib (HIV-1 protease [2]; dose 10.000 uM): 90.94% | HIV-1 Protease % Inhib (HIV-1 protease [2]; dose 30.000 uM): 85.31%

O=c1oc2c(c(O)c1C(c1ccccc1)C1CC1)CCCCC2 (stereo not shown) [Example 112, 3-(Cyclopropylphenylmethyl)-6,7,8,9-tetrahydro-4-hydroxy-cyclohepta[b]pyran-2(5H)-one]
Ki (HIV-1 protease [1]): 0.096 µM | inhibition at 1 µM (HIV-1 protease [2]): 70.1% | inhibition at 10 µM (HIV-1 protease [2]; [3]): 102% | inhibition at 100 µM (HIV-1 protease [2]): 105%

CCCC(c1cccc(NS(=O)(=O)c2cn(C)cn2)c1)c1c(O)c2c(oc1=O)CCCCCC2 (stereo not shown) [Example 431, 1H-imidazole-4-sulfonamide, N-[3-[1-(5,6,7,8,9,10-hexahydro-4-hydroxy-2-oxo-2H-cycloocta[b]pyran-3-yl)butyl]phenyl]-1-methyl-]
Ki (HIV-1 protease [1]): 0.00089 µM | inhibition at 0.123 µM (HIV-1 protease [2]): 109% | inhibition at 0.37 µM (HIV-1 protease [2]): 109% | inhibition at 1.1 µM (HIV-1 protease [2]; [4]): 109% | inhibition at 3.3 µM (HIV-1 protease [2]; [5]): 112% | inhibition at 10 µM (HIV-1 protease [2]; [3]): 105% | inhibition at 30 µM (HIV-1 protease [2]; [6]): 106%

N#Cc1ccc(S(=O)(=O)Nc2cccc([C@H](c3c(O)c4c(oc3=O)CCCCCC4)C3CC3)c2)cc1 [Example 259, (+)4-Cyano-N-[3-[cyclopropyl(5,6,7,8,9,10-hexahydro4-hydroxy-2-oxo-2H-cycloocta[b]pyran-3-yl)methyl]phenyl]-benzenesulfonamide]
Ki (HIV-1 protease [1]): 0.00071 µM

O=c1oc2c(c(O)c1[C@H](c1cccc(NS(=O)(=O)/C=C/c3ccccc3)c1)C1CC1)CCCCCC2 [Example 257, (-)-N-[3-[Cyclopropyl(5,6,7,8,9,10-hexahydro4-hydroxy-2-oxo-2H cycloocta[b]pyran-3-yl)methyl]phenyl]-2-phenyl-[(E)]-ethenesulfonamide]
Ki (HIV-1 protease [1]): 0.003 µM

CCCC1CCCCCc2c1oc(=O)c([C@H](c1ccccc1)C1CC1)c2O (single isomer, unassigned) [Example 236, 3-(S)-(Cyclopropylphenylmethyl)-4-hydroxy-10-(R or S)-propyl-5,6,7,8,9,10-hexahydro-cycloocta[b]pyran-2-one]
Ki (HIV-1 protease [1]): 0.01 µM and 0.008 µM

O=c1oc2c(c(O)c1C(c1ccccc1)C1CC1)CCCCC2 (single isomer, unassigned) [Example 230, (R or S)-3-(Cyclopropylphenylmethyl)-6,7,8,9-tetrahydro-4-hydroxy-cyclohepta[b]pyran-2(5H)-one]
Ki (HIV-1 protease [1]): 0.264 µM and 0.28 µM

O=c1oc2c(c(O)c1[C@@H](c1cccc(NS(=O)(=O)c3ccc(Cl)cc3)c1)C1CC1)CCCCCC2 [Example 251, (+)-4-Chloro-N-[3-[cyclopropyl(5,6,7,8,9,10-hexahydro-4-hydroxy-2-oxo-2H-cycloocta[b]pyran-3-yl)methyl]phenyl]-benzenesulfonamide]
Ki (HIV-1 protease [1]): 0.00125 µM

O=c1oc2c(c(O)c1C(c1ccccc1)C1CC1)CCCCC2 (single isomer, unassigned) [Example 231, (R or S)-3-(Cyclopropylphenylmethyl)-6,7,8,9-tetrahydro-4-hydroxy-cyclohepta[b]pyran-2(5H)-one]
Ki (HIV-1 protease [1]): 0.109 µM and 0.126 µM

O=c1oc2c(c(O)c1[C@@H](c1ccccc1)C1CC1)CCCCCC2 [Example 228]
Ki (HIV-1 protease [1]): 0.0348 µM

N#Cc1ccc(S(=O)(=O)Nc2cccc([C@@H](c3c(O)c4c(oc3=O)CCCCCC4)C3CC3)c2)cc1 [Example 255, (-)-4-Cyano-N-[3-[cyclopropyl(5,6,7,8,9, 10-hexahydro-4-hydroxy-2-oxo-2H-cycloocta[b]pyran-3-yl)methyl]phenyl]-benzenesulfonamide]
Ki (HIV-1 protease [1]): 0.00062 µM

O=c1oc2c(c(O)c1[C@@H](c1cccc(NS(=O)(=O)c3ccccc3)c1)C1CC1)CCCCCC2 [Example 401, N-[3-[Cyclopropyl(5,6,7,8,9,10-hexahydro-4-hydroxy-2-oxo-2H-cycloocta[b]pyran-3-yl)methyl]phenyl]-(R)-benzenesulfonamide]
Ki (HIV-1 protease [1]): 0.0023 µM

CCCC1CCCCCc2c1oc(=O)c([C@@H](c1ccccc1)C1CC1)c2O (single isomer, unassigned) [Example 233, 3-(R)-(Cyclopropylphenylmethyl)4-hydroxy-10-(R or S)-propyl-5,6,7,8,9,10-hexahydro-cycloocta[b]pyran-2-one]
Ki (HIV-1 protease [1]): 0.147 µM and 0.18 µM and 0.302 µM

O=c1oc2c(c(O)c1[C@@H](c1cccc(NS(=O)(=O)/C=C/c3ccccc3)c1)C1CC1)CCCCCC2 [Example 261, (+)-N-[3-[Cyclopropyl(5,6,7,8,9,10-hexahydro-4-hydroxy-2-oxo-2H-cycloocta[b]pyran-3-yl)methyl]phenyl]-2-phenyl-[(E)]-ethenesulfonamide]
Ki (HIV-1 protease [1]): 0.0031 µM

O=c1oc2c(c(O)c1[C@H](c1cccc(NS(=O)(=O)c3ccc(Cl)cc3)c1)C1CC1)CCCCCC2 [Example 250, (-)-4-Chloro-N-[3-[cyclopropyl(5,6,7,8,9,10-hexahydro-4-hydroxy-2-oxo-2H-cycloocta[b]pyran-3-yl)methyl]phenyl]-benzenesulfonamide]
Ki (HIV-1 protease [1]): 0.00123 µM

CCCC1CCCCCc2c1oc(=O)c([C@@H](c1ccccc1)C1CC1)c2O (single isomer, unassigned) [Example 234, 3-(R)-(Cyclopropylphenylmethyl)4-hydroxy-10-(R or S)-propyl-5,6,7,8,9,10-hexahydro-cycloocta[b]pyran-2-one]
Ki (HIV-1 protease [1]): 0.0128 µM and 0.013 µM and 0.0188 µM

O=c1oc2c(c(O)c1C(c1cccc(NS(=O)(=O)c3ccc(Cl)cc3)c1)C1CC1)CCCCCC2 (stereo not shown) [Example 264, 4-Chloro-N-[3-[cyclopropyl(5,6,7,8,9,10-hexahydro4-hydroxy-oxo-2H-cycloocta[b]pyran-3-yl)methyl]phenyl]-benzenesulfonamide]
inhibition at 0.123 µM (HIV-1 protease [2]): 78.5% | inhibition at 0.37 µM (HIV-1 protease [2]): 89% | inhibition at 1.1 µM (HIV-1 protease [2]; [4]): 99.8% | inhibition at 3.3 µM (HIV-1 protease [2]; [5]): 104% | inhibition at 10 µM (HIV-1 protease [2]; [3]): 108% | inhibition at 30 µM (HIV-1 protease [2]; [6]): 109%

COCOCc1ccc(C(c2c(O)c3c(oc2=O)CCCCCC3)C2CC2)o1 (stereo not shown) [Example 386]
inhibition at 1.1 µM (HIV-1 protease [2]; [7]): 14.3% | inhibition at 3.3 µM (HIV-1 protease [2]; [8]): 35.4% | inhibition at 10 µM (HIV-1 protease [2]; [9]): 64.5% | inhibition at 30 µM (HIV-1 protease [2]; [10]): 96.3%

CCC(c1cccc(N)c1)c1c(O)c2c(oc1=O)CCCCCC2 (stereo not shown) [Example 218, 2H-Cycloocta[b]pyran-2-one, 3-[1-(3-aminophenyl)propyl]-5,6,7,8,9,10-hexahydro-4-hydroxy-]
inhibition at 1.1 µM (HIV-1 protease [2]; [7]): 26.2% | inhibition at 3.3 µM (HIV-1 protease [2]; [8]): 65.2% | inhibition at 10 µM (HIV-1 protease [2]; [9]): 88% | inhibition at 30 µM (HIV-1 protease [2]; [10]): 91.4%

CCC(c1cccc(NC(=O)C(NC(=O)OC(C)(C)C)C(C)C)c1)c1c(O)c2ccccc2oc1=O (stereo not shown) [Example 42, Carbamic acid, [1-[[[3-[1-(4-hydroxy-2-oxo-2H-1-benzopyran-3-yl)propyl]phenyl]amino]carbonyl]-2-methylpropyl]-, 1,1-dimethylethyl ester]
IC50 (HIV-1 protease [2]; HIV-1 Protease IC50): 9.9 µM | HIV-1 Protease % Inhib (HIV-1 protease [2]; dose 100.000 uM): 102.8% | inhibition at 1 µM (HIV-1 protease [2]): 11.5% | inhibition at 10 µM (HIV-1 protease [2]; [3]): 75.2% | inhibition at 100 µM (HIV-1 protease [2]): 112%

CCCC1CCCCCc2c1oc(=O)c([C@H](c1ccccc1)C1CC1)c2O (single isomer, unassigned) [Example 237, 3-(S)-(Cyclopropylphenylmethyl)-4-hydroxy-10-(R or S)-propyl-5,6,7,8,9,10-hexahydro-cycloocta[b]pyran-2-one]
Ki (HIV-1 protease [1]): 0.06 µM and 0.117 µM

CCCC(Cc1ccccc1)c1c(O)c2ccccc2oc1=O (stereo not shown) [Example 147, 3-(1 -Benzyl-butyl)-4-hydroxy-chromen-2-one]
inhibition at 1 µM (HIV-1 protease [2]): 34.7% | inhibition at 10 µM (HIV-1 protease [2]; [3]): 86.3% | inhibition at 100 µM (HIV-1 protease [2]): 96.5%

O=c1oc2c(c(O)c1C(c1cccc(NS(=O)(=O)c3ccc4ccccc4c3)c1)C1CC1)CCCCCC2 (stereo not shown) [Example 266, N-[3-[Cyclopropyl(5,6,7,8,9,10-hexahydro-4-hydroxy-2-oxo-2H-cycloocta[b]pyran-3-yl)methyl]phenyl]-2-naphthalenesulfonamide]
inhibition at 0.123 µM (HIV-1 protease [2]): 79.8% | inhibition at 0.37 µM (HIV-1 protease [2]): 88.4% | inhibition at 1.1 µM (HIV-1 protease [2]; [4]): 104% | inhibition at 3.3 µM (HIV-1 protease [2]; [5]): 100% | inhibition at 10 µM (HIV-1 protease [2]; [3]): 105% | inhibition at 30 µM (HIV-1 protease [2]; [6]): 103%

O=c1oc2c(c(O)c1[C@H](c1cccc(NS(=O)(=O)c3ccccc3)c1)C1CC1)CCCCCC2 [Example 258, (-)-N-[3-[Cyclopropyl(5,6,7,8,9,10-hexahydro4-hydroxy-2-oxo-2H-cycloocta[b]pyran-3-yl)methyl]phenyl]-benzenesulfonamide]
Ki (HIV-1 protease [1]): 0.0076 µM
